Measurements reported in patent US4552865A, “Psychotropic drugs” (Shionogi & Co., Ltd., priority 1981, dated 1985).
Structures can show the parent of a compound that is named as a salt. Where two headings read alike, the source gives them in different places. Where a SMILES comes first, the peptide text is derived from it. [ ]: non-standard residue; d: D form. sY = N[C@@H](Cc1ccc(OS(=O)(=O)O)cc1)C(=O)O; pGlu = O=C1CC[C@@H](C(=O)O)N1

Experiments:
[1] = test system: patients of schizophrenia
Procedure: (1) Method of application: Caerulein tris-diethylamine salt is dissolved in sterilized physiological saline at a rate of 20 μg/ml (W/V), and intramuscularly injected to each patient once at a dose of 0.3 μg/kg (body weight) or 0.6 μg/kg (body weight).

rats = conditions: intravenous, cited from earlier work
mice = conditions: intravenous, cited from earlier work

Structure (SMILES)	mental conditions ([1]; administered to humans)	LD50 (rats; female) [mg/kg]	LD50 (rats; male) [mg/kg]	LD50 (mice; female) [mg/kg]	LD50 (mice; male) [mg/kg]	Side effect ([1]; individual schizophrenia patient, after i.m. injection)
CSCC[C@H](NC(=O)[C@H](Cc1c[nH]c2ccccc12)NC(=O)CNC(=O)[C@@H](NC(=O)[C@H](Cc1ccc(OS(=O)(=O)O)cc1)NC(=O)[C@H](CC(=O)O)NC(=O)[C@H](CCC(N)=O)NC(=O)[C@@H]1CCC(=O)N1)[C@@H](C)O)C(=O)N[C@@H](CC(=O)O)C(=O)N[C@@H](Cc1ccccc1)C(N)=O [caerulein, 5-oxo-L-prolyl-L-glutaminyl-L-aspartyl-O-sulfo-L-tryosyl-L-threonylglycyl-L-tryptophyl-L-methionyl-L-aspartyl-L-phenylalaninamide] ([pGlu]QD[sY]TGWMDF-NH2)	improves rapidly and markedly the mental conditions	571	714	702	647	–
CSCC[C@H](NC(=O)[C@H](Cc1c[nH]c2ccccc12)NC(=O)CNC(=O)[C@@H](NC(=O)[C@H](Cc1ccc(OS(=O)(=O)O)cc1)NC(=O)[C@H](CC(=O)O)NC(=O)[C@H](CCC(N)=O)NC(=O)[C@@H]1CCC(=O)N1)[C@@H](C)O)C(=O)N[C@@H](CC(=O)O)C(=O)N[C@@H](Cc1ccccc1)C(N)=O [Caerulein tris-diethylamine salt] ([pGlu]QD[sY]TGWMDF-NH2)	–	–	–	–	–	No
